# Entries after “also recorded” stand apart in the source; their conditions may differ. Like-named read-outs stand apart in the source and are kept apart here.
# Key:
# Arabidopsis [1] = assay: Arabidopsis reversal (reversion) assay: growth with probe compound in the presence of antidote compounds; type: in vivo; conditions: for Inhibition of AMP biosynthesis (conversion of IMP to AMP), in words: concluded from Arabidopsis antidote reversal; for Growth (in words): without antidote; for Effect of the antidote alone on growth of the plant (in words): control columns 1 through 3, no probe compound
# Description: Test conditions suitable for growth are those conditions wherein the control plant material used in the screen, described herein, will grow normally. These conditions are easily determined by one skilled in the art. Reversal conditions are those conditions in which inhibition which occurs at the lethal concentration of a probe compound is reversed as determined by exposure of the plant material to combinations of the probe compound and to one or more antidote compounds. […] An antidote compound is a compound that causes reversal of inhibition of a probe compound. As an example, with respect to inhibitors of ADSS, antidotes would include AMP, ADP, adenosine and adenine.
# The solutions are filter sterilized prior to addition. FIG. 4 represents a typical set up in a reversion assay for discovering inhibitors of AMP biosynthesis.
# The left side (columns 1-3) of the 24-well microtiter plate is designed for controls, and the right side (columns 4-6) are designated for one probe compound. […] Rows B, C and D are supplemented with three doses of an antidote for the control and probe compound. […] The three doses are 50, 100 and 150 μl respectively of the stock solutions.
# Forty ml of Arabidopsis growth media as described in Example 1 is sterilized and allowed to cool to about 45° C. A probe compound (at 1.5×lethal concentration) is added to columns 4 through 6 (right half of the plate). Media is distributed at 1.0 ml per well to all wells. Sterile seeds are added to each well as described above. As in Example 1, the plate is incubated and growth is scored.
# Arabidopsis [2] = assay: Arabidopsis bioassay, determination of the lethal concentration (LC 90) of the probe compound
# IMP to GMP conversion = conditions: known; cited from earlier work
# [3] = antidote Adenosine + Guanosine 0.5-5.0 mM
# [4] = antidote Cytidine + Uridine 0.5-5.0 mM
# [5] = antidote Hypoxanthine 0.5-5.0 mM
# [6] = read-out: lethal concentration (LC 90), Arabidopsis seeds, 28° C., 7 days, approximately, 90% or greater growth inhibition
Compound,"Growth, % of Control (Arabidopsis [1]; antidote ADP 0.5-5.0 mM)","Growth, % of Control (Arabidopsis [1]; antidote AMP 0.5-5.0 mM)","Growth, % of Control (Arabidopsis [1]; antidote ATP 0.5-5.0 mM)","Growth, % of Control (Arabidopsis [1]; antidote Adenine 0.5-5.0 mM)","Growth, % of Control (Arabidopsis [1]; antidote Adenosine 0.5-5.0 mM)","Growth, % of Control (Arabidopsis [1]; [3])","Growth, % of Control (Arabidopsis [1]; [4])","Growth, % of Control (Arabidopsis [1]; antidote Guanine 0.5-5.0 mM)","Growth, % of Control (Arabidopsis [1]; antidote Guanosine 0.5-5.0 mM)","Growth, % of Control (Arabidopsis [1]; [5])","Growth, % of Control (Arabidopsis [1]; antidote IMP 0.5-5.0 mM)","Inhibition of AMP biosynthesis (conversion of IMP to AMP), in words (Arabidopsis [1])",Growth (in words) (Arabidopsis [1]),further results
"O=C1NC(=O)C2(N1)O[C@H](CO)[C@@H](O)[C@H]2O (single isomer, unassigned) [hydantocidin, reference compound]",100 % of Control,100 % of Control,40 % of Control,60 % of Control,80-100 % of Control,80 % of Control,0 % of Control,0 % of Control,0 % of Control,0 % of Control,5 % of Control,blocking AMP biosynthesis; also recorded: inhibition of AMP biosynthesis,Growth is not observed,"Growth / reversal of growth inhibition (in words) (Arabidopsis [1]; antidote IMP): did not reverse growth inhibition; Growth / reversal of growth inhibition (in words) (Arabidopsis [1]; antidotes adenosine and AMP, rows B and C, wells 4 through 6): Complete growth; IC90 (Arabidopsis [2]; [6]): ~2 µM"
"Nc1ncnc2c1ncn2[C@@H]1O[C@H](COP(=O)(O)O)[C@@H](O)[C@H]1O [AMP, adenosine monophosphate, reference compound]",,,,,,,,,,,,,,Effect of the antidote alone on growth of the plant (in words) (Arabidopsis [1]): no effect on the growth of the plant
"COc1c(C)c2c(c(O)c1C/C=C(\C)CCC(=O)O)C(=O)OC2 [MPA, Mycophenolic Acid]",,,,,,,,,,,,,Growth is not observed,"Inhibition of IMP to GMP conversion, in words (IMP to GMP conversion): known inhibitor of IMP to GMP conversion; IC90 (Arabidopsis [2]; Arabidopsis thaliana, 168 h, read-out: lethal concentration): 12.5 µg/mL"
"CC(=O)N1C(=O)NC2(OC(COP(=O)(O)O)C(O)C2O)C1=O (stereo not shown) [N-acetylphosphohydantocidin, 5'-Phospho-N-acetyl-hydantocidin]",100 % of Control,100 % of Control,40 % of Control,65 % of Control,80-100 % of Control,80 % of Control,0 % of Control,0 % of Control,0 % of Control,0 % of Control,5 % of Control,,Growth is not observed,"Growth, % of Control (Arabidopsis [1]; No antidote, 0 mM, probe compound at 1.5×lethal concentration): 0 % of Control; IC90 (Arabidopsis [2]; [6]): ~8 µM"
"NC(=O)c1ncn([C@@H]2O[C@H](CO)[C@@H](O)[C@H]2O)n1 [TCR, 1,2,4-triazole-3-carboxamide-1-ribose, reference compound]",,,,,,,,,,,,,Growth is not observed,
"Nc1ncnc2c1ncn2[C@@H]1O[C@H](CO)[C@@H](O)[C@H]1O [adenosine, reference compound]",,,,,,,,,,,,,,Effect of the antidote alone on growth of the plant (in words) (Arabidopsis [1]): no effect on the growth of the plant
"O=CN(O)CC(=O)O [hadacidin, reference compound]",,,,,,,,,,,,blocking AMP biosynthesis,Growth is not observed,"IC90 (Arabidopsis [2]; Arabidopsis thaliana, 168 h, read-out: lethal concentration (LC 90)): ~50 µM"
N-acetyl hydantocidin,100 % of Control,100 % of Control,40 % of Control,60 % of Control,80-100 % of Control,80 % of Control,0 % of Control,0 % of Control,0 % of Control,0 % of Control,5 % of Control,blocking AMP biosynthesis,Growth is not observed,
